According to patent US20100143994A1, “PROCESS FOR FERMENTIVE PREPARATION OF ALCOHOLS AND RECOVERY OF PRODUCT” (E. I. DU PONT DE MEMOURS AND COMPANY, priority 2008, published 2010):

How the values were obtained:
[1] = Extraction of ethanol from an aqueous solution by ionic liquid; format: physicochemical; conditions: 3 mL aqueous solution about 31 g/L ethanol, 5 vol % ionic liquid, overnight equilibration
Protocol: (§1) Ethanol and isobutanol concentration in the solution was measured using HPLC as described above following thorough mixing and overnight equilibration of the contents of the vial.

[2] = Extraction of isobutanol from an aqueous solution by ionic liquid; format: physicochemical; conditions: 3 mL aqueous solution about 31 g/L isobutanol, 5 vol % ionic liquid, overnight equilibration
Protocol: as §1

[3] = tested on: Saccharomyces cerevisiae (W1362 20A); test: Scale-up (25 mL broth) fermentation with ionic liquid, glucose uptake and ethanol production over five hours; format: cell-based; conditions: 5 volume percent ionic liquid, five hour time span, FIG. 2
Protocol: Cultures were again prepared using the same growth conditions as described above except that the total broth volume was 25 mL. The selected ionic liquids were added to a container of each broth in an amount of 5 volume percent. In these experiments, small samples were withdrawn from the broth for HPLC analysis periodically over a five hour time span to get a better idea of the extent of metabolic activity after ionic liquid addition as well as to provide information on glucose consumption and product formation. […] The calculation of GUI was made as described above, and amount of ethanol produced was taken directly from the HPLC data.

1-butyl-3-methylpyrrolidinium bis(trifluoromethylsulfonyl)imide [Example 15]
Ethanol (mM) in solution after equilibration [1]: 676 mM | Isobutanol (mM) in solution after equilibration [2]: 391 mM | ethanol production throughout the fermentation run [3]: remained robust | glucose uptake (GUI) throughout the fermentation run [3]: remained robust

1-ethyl-3-methylimidazolium bis(trifluoromethylsulfonyl)imide [Example 6]
Ethanol (mM) in solution after equilibration [1]: 670 mM | Isobutanol (mM) in solution after equilibration [2]: 389 mM | ethanol production throughout the fermentation run [3]: remained robust | glucose uptake (GUI) throughout the fermentation run [3]: remained robust

1-hexyl-3-methylimidazolium bis(trifluoromethylsulfonyl)imide [Example 9]
Ethanol (mM) in solution after equilibration [1]: 678 mM | Isobutanol (mM) in solution after equilibration [2]: 388 mM | ethanol production throughout the fermentation run [3]: remained robust | glucose uptake (GUI) throughout the fermentation run [3]: remained robust

CCCCCCn1cc[n+](C)c1.FC(F)(F)C(F)(F)[P-](F)(F)(F)(C(F)(F)C(F)(F)F)C(F)(F)C(F)(F)F [Example 1, 1-hexyl-3-methylimidazolium tris(pentafluoroethyl)trifluorophosphate]
Ethanol (mM) in solution after equilibration [1]: 680 mM | Isobutanol (mM) in solution after equilibration [2]: 404 mM | ethanol production throughout the fermentation run [3]: remained robust | glucose uptake (GUI) throughout the fermentation run [3]: remained robust
